Reference: patent EP0067641A2, “Amino acids” (BEECHAM GROUP PLC, priority 1981, dated 1982)
Marks after values point to notes of the source that are not given here.

Tested on: rats made hyperlipidaemic by diet
Assay: Effects on serum lipids in vivo in rats made hyperlipidaemic by diet
Set-up: species or system Male Sprague-Dawley rats
Conditions: compound fed at 0.1% of the powdered diet (approximately 100 mg/kg/day), 7 days, (-) lower, (+) higher than control; for Percentage difference from Control Values in High Density lipoprotein (HDL) cholesterol: HDL fraction by heparin-manganous chloride precipitation, four pooled samples per group; for Percentage difference from Control Values in Total Serum Cholesterol / Percentage difference from Control Values in Total Serum Triglyceride: semi-synthetic diet rich in sucrose and cholesterol
Experimental: The compounds of the Examples above were tested for their effects on serum lipids in vivo using rats made hyperlipidaemic by diet*.
Male Sprague-Dawley rats, 80-100 g , were randomised into groups of 8 after 5 - 7 days of feeding on the diet. The compounds were fed to the rats at a concentration of * 0.1% of the powdered diet (ie approximately 100 mg/kg/ day), unless otherwise stated. The control groups were fed only the diet. At the end of the experiment, ie after 7 days, the rats were killed and their individual total serum cholesterol and triglyceride measured in mg/100 ml using a Technicon Autoanalyser. The high density lipoprotein (HDL)-cholesterol fraction, which was obtained from the serum by precipitation with heparin- manganous chloride, was measured on four 'pooled' samples from each group.
^* A semi-synthetic diet rich in sucrose and cholesterol.

SMILES | Percentage difference from Control Values in High Density lipoprotein (HDL) cholesterol | Percentage difference from Control Values in Total Serum Cholesterol | Percentage difference from Control Values in Total Serum Triglyceride
O=C(O)C(Cc1ccc(Cl)cc1)NCc1ccc(Cl)s1 (racemic) [Example 1, N-[2-(5-chloro)thienyl]methyl-DL-(4-chlorophenyl) alanine] | +31* % | +16% | -42* %
O=C(O)C(Cc1ccc(Cl)cc1)NCc1ccco1 (racemic) [Example 2, N-(2-Furyl)methyl-DL-(4-chlorophenyl)-alanine] | +84* % | +61* % | -47* %
O=C(O)C(Cc1ccc(Cl)cc1)NCc1ccccn1 (racemic) [Example 4, N-(2-pyridyl)methyl-DL-(4-chlorophenyl) alanine] | +44* % | +78* % | -30* %
O=C(O)[C@H](Cc1ccccc1)NCc1cccc2ccccc12 [Example 3, N-(1-Naphthyl)methyl-L-phenylalanine] | +41* % | +62* % | -63* %
O=C(O)[C@H](Cc1ccccc1)NCc1ccc2ccccc2c1 [Example 5, N-(2-Naphthyl)methyl-L-phenylalanine] | +30* % | +17* % | -57* %
O=C(O)[C@H](Cc1ccccc1)NCc1ccco1 [Example 6, N-(2-Furyl)methyl-L-phenylalanine] | +26* % | – | +39%
